This passage reports Ki and IC50 results from patent US20210355106A1, “NEW AMINO-PYRIMIDONYL-PIPERIDINYL DERIVATIVES, A PROCESS FOR THEIR PREPARATION AND PHARMACEUTICAL COMPOSITIONS CONTAINING THEM” (LES LABORATOIRES SERVIER, priority 2018, published 2021).

The target in one experiment is T1, USP7 (Homo sapiens, UniProt Q93009, C315A).
T1 construct: 0.25 nM His-His-USP7 (aa208-560, |C315A|) was incubated with compound; His-His (N)
Kind of experiment: Inhibition of USP7 by Fluorescence Intensity (FLINT) readings, Ubiquitin-Rhodamine-110 substrate. The class given is biochemical. The conditions noted are these: 0.25 nM His-His-USP7 (aa208-560), 60 minutes at 30° C. preincubation; Ki determined from IC50 according to Cer et al. The gist of the method: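 His-tagged USP7 (aa208-560, C315A), 0.25 nM, preincubated with compound 60 min at 30 °C in 100 mM Bicine pH 8.0, 0.01% Triton X-100, 1 mM TCEP, 10% DMSO. Ubiquitin-Rhodamine-110 (50 nM or 4 μM) added; kinetic fluorescence (Ex 485/Em 535 nm) over 21 min; IC50 from 11-point curves, Ki derived from IC50.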

The test system of experiment [1] is Z138 mantle cell lymphoma tumour cell lines. Kind of experiment: In vitro cytotoxicity, MTT assay. Type of experiment: cell-based. The conditions noted are these: Z138 cells, exposed to the test compounds for 96 hours. The procedure, abridged:
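Z138 cells exposed to compounds for 96 hours, then MTT added for 4 hours. Formazan absorbance at 540 nm serves as the measure of viable cell number.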
A general note: Tetrazolium dyes change colour on reduction, which living cells bring about.

Values joined by “and” are separate entries in the source; they are usually repeats but may differ in a detail not shown here. Equal values may be shown once.

T1 sequence (Q93009 208-560 C315A): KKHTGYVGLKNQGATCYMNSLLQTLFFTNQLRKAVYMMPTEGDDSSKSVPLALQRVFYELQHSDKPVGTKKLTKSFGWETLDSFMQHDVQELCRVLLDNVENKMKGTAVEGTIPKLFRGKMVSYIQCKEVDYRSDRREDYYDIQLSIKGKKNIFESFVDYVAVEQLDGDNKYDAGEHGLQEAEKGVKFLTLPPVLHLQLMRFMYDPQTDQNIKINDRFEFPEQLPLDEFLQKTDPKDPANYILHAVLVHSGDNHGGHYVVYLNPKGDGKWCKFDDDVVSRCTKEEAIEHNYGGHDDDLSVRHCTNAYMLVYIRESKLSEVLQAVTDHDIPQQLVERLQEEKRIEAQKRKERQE

As a reminder, the Ki is a dissociation constant, usually derived from enzyme kinetics or from competition with a known ligand. A high value points to a looser hold on the target. Broadly, the IC50 is the concentration needed to halve the response being measured. Low readings indicate higher potency, high ones lower potency. `Cc1nccc(CN2CC[C@@H](C(=O)N3CC[C@](O)(Cn4cnc(Oc5cccc(C(F)(F)F)c5)c(N)c4=O)C(F)(F)C3)[C@H](c3ccccc3)C2)n1` [Example 143, 5-amino-3-[[(4S)-3,3-difluoro-4-hydroxy-1-[(3R,4R)-1-[(2-methylpyrimidin-4-yl)methyl]-3-phenyl-piperidine-4-carbonyl]-4-piperidyl]methyl]-6-(3-(trifluoromethyl)phenoxy]pyrimidin-4-one] returned a Ki at USP7 of 42 nM. This compound also had a concentration for half-maximal inhibition (IC50) in experiment [1] (Homo sapiens, Z-138) of 217 nM.
The matching figures for `Cc1cnc(CN2CC[C@@H](C(=O)N3CC[C@](O)(Cn4cnc(Oc5cccc(C(F)(F)F)c5)c(N)c4=O)C(F)(F)C3)[C@H](c3ccccc3)C2)cn1` [Example 144, 5-amino-3-{[(4S)-3,3-difluoro-4-hydroxy-1-[(3R,4R)-1-((5-methylpyrazin-2-yl)methyl]-3-phenyl-piperidine-4-carbonyl]-4-piperidyl]methyl]-6-[3-(trifluoromethyl)phenoxy]pyrimidin-4-one]: 22 nM and 80.2 nM.
As to `Cc1nccc(CN2CC[C@@H](C(=O)N3CC[C@](O)(Cn4cnc(Oc5ccc(Cl)c(F)c5)c(N)c4=O)C(F)(F)C3)[C@H](c3ccccc3)C2)n1` [Example 147], on USP7, the inhibition constant Ki worked out at 19 nM. The compound also returned an IC50 in experiment [1] (Homo sapiens, Z-138) of 48.7 nM.
`Cc1cnc(CN2CC[C@@H](C(=O)N3CC[C@](O)(Cn4cnc(Oc5ccc(Cl)c(F)c5)c(N)c4=O)C(F)(F)C3)[C@H](c3ccccc3)C2)cn1` [Example 148, 5-amino-6-(4-chloro-3-fluoro-phenoxy)-3-[[(4S)-3,3-difluoro-4-hydroxy-1-[(3R,4R)-1-[(5-methylpyrazin-2-yl)methyl]-3-phenyl-piperidine-4-carbonyl]-4-piperidyl]methyl]pyrimidin-4-one] had a Ki on USP7 of 7.5 nM. The compound further showed an IC50 in experiment [1] (Homo sapiens, Z-138) of 39.9 nM.
In turn, `COc1cc(Oc2ncn(C[C@@]3(O)CCN(C(=O)[C@@H]4CCN(Cc5ccnc(C)n5)C[C@H]4c4ccccc4)CC3(F)F)c(=O)c2N)ccc1F` [Example 149] registered a Ki at USP7 of 14 nM. The compound further returned an IC50 in experiment [1] (Homo sapiens, Z-138) of 24.1 nM.
Compound `Nc1c(Oc2ccc(F)cc2)ncn(CC2(O)CCN(C(=O)[C@@H]3CCN(C4(c5cccc(C(F)(F)F)c5)COC4)C[C@H]3c3ccccc3)CC2)c1=O` [Example 152, 5-amino-6-(4-fluorophenoxy)-3-[[4-hydroxy-1-[(3R,4R)-3-phenyl-1-[3-[3-(trifluoromethyl)phenyl]oxetan-3-yl]piperidine-4-carbonyl]-4-piperidyl]methyl]pyrimidin-4-one] came in with a Ki on USP7 of 82 nM. The same compound showed an IC50 in experiment [1] (Homo sapiens, Z-138) of 202 nM.
The matching figures for `Nc1c(Oc2ccc(F)cc2)ncn(CC2(O)CCN(C(=O)[C@@H]3CCN(C4(c5cccc(F)c5)COC4)C[C@H]3c3ccccc3)CC2)c1=O` [Example 153, 5-amino-6-(4-fluorophenoxy)-3-[[1-[(3R,4R)-1-[3-(3-fluorophenyl)oxetan-3-yl]-3-phenyl-piperidine-4-carbonyl]-4-hydroxy-4-piperidyl]methyl]pyrimidin-4-one]: 28.7 nM and 62 nM.
`COc1cc(Oc2ncn(C[C@@]3(O)CCN(C(=O)[C@@H]4CCN(Cc5cnc(C)cn5)C[C@H]4c4ccccc4)CC3(F)F)c(=O)c2N)ccc1F` [Example 154] had a Ki at USP7 of 7.8 nM. For the same compound, the IC50 in experiment [1] (Homo sapiens, Z-138) was 11.4 nM.
The compound `Cc1ccc(C2(N3CC[C@@H](C(=O)N4CCC(O)(Cn5cnc(Oc6ccc(F)cc6)c(N)c5=O)CC4)[C@H](c4ccccc4)C3)COC2)cc1` [Example 155] showed a Ki at USP7 of 97 nM. The half-inhibitory concentration (IC50) in experiment [1] is 588 nM.
On to `Cc1cncc(C(=O)N2CC[C@@H](C(=O)N3CC[C@](O)(Cn4cnc(Oc5ccc(F)cc5)c(N)c4=O)C(F)(F)C3)[C@H](c3ccccc3)C2)c1` [Example 157, 5-amino-3-[[(4S)-3,3-difluoro-4-hydroxy-1-[(3R,4R)-1-(5-methylpyridine-3-carbonyl)-3-phenyl-piperidine-4-carbonyl]-4-piperidyl]methyl]-6-(4-fluorophenoxy)pyrimidin-4-one], for which the Ki on USP7 turned out to be 4.83 nM. Moreover, in experiment [1] (Homo sapiens, Z-138), inhibition was half-maximal at 5.18 nM (IC50).
At USP7, `Cc1nc(C2CCCCC2)sc1C(=O)N1CC[C@@H](C(=O)N2CCC(O)(Cn3cnc(Oc4ccc(F)cc4)c(N)c3=O)CC2)[C@H](c2ccccc2)C1` [Example 158] showed a Ki of 10.7 nM. In experiment [1] (Homo sapiens, Z-138), this compound gave a half-inhibitory concentration (IC50) of 5.24 nM.
In the case of `Cc1ccc(-c2cccc(S(=O)(=O)N3CC[C@@H](C(=O)N4CCC(O)(Cn5cnc(Oc6ccc(F)cc6)c(N)c5=O)CC4)[C@H](c4ccccc4)C3)c2)cn1` [Example 159, 5-amino-6-(4-fluorophenoxy)-3-[[4-hydroxy-1-[(3R,4R)-1-[3-(6-methyl-3-pyridyl)phenyl]sulfonyl-3-phenyl-piperidine-4-carbonyl]-4-piperidyl]methyl]pyrimidin-4-one], the affinity on USP7 corresponds to a Ki of 22.2 nM. The IC50 in experiment [1] (Homo sapiens, Z-138) was found to be 8.18 nM.
At USP7, `Nc1c(Oc2ccc(F)cc2)ncn(C[C@@]2(O)CCN(C(=O)[C@@H]3CCN(Cc4ccnc(Cl)n4)C[C@H]3c3ccccc3)CC2(F)F)c1=O` [Example 160] yielded a Ki of 16.9 nM. In experiment [1] (Homo sapiens, Z-138), the 50% inhibitory concentration (IC50) came to 6.47 nM.
On to `Cc1nc(C2CCCC2)sc1C(=O)N1CC[C@@H](C(=O)N2CCC(O)(Cn3cnc(Oc4ccc(F)cc4)c(N)c3=O)CC2)[C@H](c2ccccc2)C1` [Example 161, 5-amino-3-[[1-[(3R,4R)-1-(2-cyclopentyl-4-methyl-thiazole-5-carbonyl)-3-phenyl-piperidine-4-carbonyl]-4-hydroxy-4-piperidyl]methyl]-6-(4-fluorophenoxy)pyrimidin-4-one], for which the Ki at USP7 was 10.1 nM. In experiment [1] (Homo sapiens, Z-138), this compound displayed an IC50 of 3.63 nM.
`Cc1cc(Cl)cc(C(=O)N2CC[C@@H](C(=O)N3CCC(O)(Cn4cnc(Oc5ccc(F)cc5)c(N)c4=O)CC3)[C@H](c3ccccc3)C2)c1` [Example 162] yielded a Ki at USP7 of 12.7 nM. Besides, the IC50 in experiment [1] (Homo sapiens, Z-138) turned out to be 3.72 nM.
Compound `Nc1c(Oc2ccc(F)cc2)ncn(CC2(O)CCN(C(=O)[C@@H]3CCN(C(=O)c4cncc(-n5cccc5)c4)C[C@H]3c3ccccc3)CC2)c1=O` [Example 163, 5-amino-6-(4-fluorophenoxy)-3-[[4-hydroxy-1-[(3R,4R)-3-phenyl-1-(5-pyrrol-1-ylpyridine-3-carbonyl)piperidine-4-carbonyl]-4-piperidyl]methyl]pyrimidin-4-one] had an inhibition constant (Ki) at USP7 of 9.76 nM. The compound also displayed an IC50 in experiment [1] (Homo sapiens, Z-138) of 1.41 nM.
On to `Cc1ccc(-c2cc(CN3CC[C@@H](C(=O)N4CC[C@](O)(Cn5cnc(Oc6ccc(F)cc6)c(N)c5=O)C(F)(F)C4)[C@H](c4ccccc4)C3)ncn2)cn1` [Example 164, 5-amino-3-[[(4S)-3,3-difluoro-4-hydroxy-1-[(3R,4R)-1-[[6-(6-methyl-3-pyridyl)pyrimidin-4-yl}methyl]-3-phenyl-piperidine-4-carbonyl]-4-piperidyl]methyl]-6-(4-fluorophenoxy)pyrimidin-4-one], for which the Ki on USP7 is 6.48 nM and 5.16 nM. In experiment [1] (Homo sapiens, Z-138), the IC50 amounted to 1.83 nM.
Turning to `Cc1nc(C2CCC2)sc1C(=O)N1CC[C@@H](C(=O)N2CCC(O)(Cn3cnc(Oc4ccc(F)cc4)c(N)c3=O)CC2)[C@H](c2ccccc2)C1` [Example 165, 5-amino-3-[[1-[(3R,4R)-1-(2-cyclobutyl-4-methyl-thiazole-5-carbonyl)-3-phenyl-piperidine-4-carbonyl]-4-hydroxy-4-piperidyl]methyl]-6-(4-fluorophenoxy)pyrimidin-4-one], on USP7, the Ki turned out to be 9.33 nM. The same compound had a half-maximal inhibitory concentration (IC50) in experiment [1] (Homo sapiens, Z-138) of 2.74 nM.
On USP7, `Cc1nccc(CN2CC[C@@H](C(=O)N3CC[C@](O)(Cn4cnc(Oc5ccc(Cl)cc5)c(N)c4=O)C(F)(F)C3)[C@H](c3ccccc3)C2)n1` [Example 168] displayed a Ki of 38.5 nM. This compound also showed a concentration for half-maximal inhibition (IC50) in experiment [1] (Homo sapiens, Z-138) of 13.8 nM.
Regarding `Cc1ccc(-c2nc(C)c(C(=O)N3CC[C@@H](C(=O)N4CCC(O)(Cn5cnc(Oc6cccnc6)c(N)c5=O)CC4)[C@H](c4ccccc4)C3)s2)cn1` [Example 169], the affinity at USP7, expressed as Ki, was 3.47 nM. In addition, the IC50 in experiment [1] (Homo sapiens, Z-138) was found to be 16.6 nM.
The matching figures for `Nc1c(Oc2ccc(F)cc2)ncn(CC2(O)CCN(C(=O)[C@@H]3CCN(C4(c5cccc(Cl)c5)COC4)C[C@H]3c3ccccc3)CC2)c1=O` [Example 171]: 42.8 nM and 31.4 nM.
For the compound `Cc1nc(C2CCCNC2)sc1C(=O)N1CC[C@@H](C(=O)N2CCC(O)(Cn3cnc(Oc4ccc(F)cc4)c(N)c3=O)CC2)[C@H](c2ccccc2)C1` (stereo partly drawn) [Example 172, 5-amino-6-(4-fluorophenoxy)-3-[[4-hydroxy-1-[(3R,4R)-1-[4-methyl-2-(3-piperidyl)thiazole-5-carbonyl]-3-phenyl-piperidine-4-carbonyl]-4-piperidyl]methyl]pyrimidin-4-one], on USP7, the affinity corresponds to a Ki of 7.64 nM. The compound further returned an IC50 in experiment [1] (Homo sapiens, Z-138) of 385 nM.
For `COc1cc(Cl)cc(Oc2ncn(C[C@@]3(O)CCN(C(=O)[C@@H]4CCN(Cc5ccnc(C)n5)C[C@H]4c4ccccc4)CC3(F)F)c(=O)c2N)c1` [Example 175, 5-amino-6-(3-chloro-5-methoxy-phenoxy)-3-[[(4S)-3,3-difluoro-4-hydroxy-1-[(3R,4R)-1-[(2-methylpyrimidin-4-yl)methyl]-3-phenyl-piperidine-4-carbonyl]-4-piperidyl]methyl]pyrimidin-4-one], at USP7, the affinity, expressed as Ki, was 81.2 nM. In addition, it took 26.5 nM to reach half-maximal inhibition in experiment [1] (Homo sapiens, Z-138) (IC50).
Take `Cc1ccc(-c2nccc(CN3CC[C@@H](C(=O)N4CC[C@](O)(Cn5cnc(Oc6ccc(F)cc6)c(N)c5=O)C(F)(F)C4)[C@H](c4ccccc4)C3)n2)cn1` [Example 176, 5-amino-3-[[(4S)-3,3-difluoro-4-hydroxy-1-((3R,4R)-1-{[2-(6-methyl-3-pyridyl)pyrimidin-4-yl]methyl]-3-phenyl-piperidine-4-carbonyl]-4-piperidyl]methyl]-6-(4-fluorophenoxy)pyrimidin-4-one]: at USP7, affinity was put at a Ki of 3.2 nM. The compound further came in with an IC50 in experiment [1] (Homo sapiens, Z-138) of 1.52 nM.
